Results: US8722637B2, “Methods and compositions of IG20 and DENN-SV splice variants” (The Board of Trustees of the University of Illinois, priority 2003, dated 2014)

Legend:
Type in all cases: cell-based, human
HeLa cells = test: TNFα-induced mitochondrial depolarization in Annexin V-separated cells
Excerpt: FIG. 7: Endogenous Expression of IG20 variants and Susceptibility To TNF-Induced Apoptosis. (A) Magnetic Separation of Apoptotic and TNFα-resistant Cells. Apoptotic cells were magnetized and physically separated from TNFα-resistant cells using the Annexin V-conjugated microbeads, as described in Materials and Methods. mRNAs were then isolated from apoptotic and TNFα-resistant cells separately and were used in RT-PCR using IG20-specific primers F-1 and B-1. […] In contrast, marked increase in expression of IG20 with no expression of DENN-SV (the anti-apoptotic variant) is seen in apoptotic cells. (B) TNFα-Induced Mitochondrial Depolarization in apoptotic and TNFα-resistant cells. Cells in (A) were then assessed for mitochondrial depolarization. […] Bars represent averages from three wells for each group. The experiment was repeated at least three times and consistent results were obtained.
Cells were plated in 6-well plates at 1.2×10^5 in growth medium. Twenty four hours later, cells were either untreated or treated with 10 ng/ml TNF-α and 10 μg/ml cyclohexamide (CHX) for 6 hours. To assess the effects of TNFα and CHX treatment, cells were either stained with 100 nM tetramethylrhodamine ethyl ester (TMRE) (Molecular Probes, Eugene, Oreg.) for 10 minutes, harvested by trypsinization, washed once with ice-cold PBS and then subjected to FACS analysis, or were stained with either trypan blue and evaluated for viability using a light microscope, or with 1 μg/ml Hoechst 33342 (Sigma) for 10 minutes and evaluated for chromatin condensation in situ using a Diaphot 200 inverted microscope with an epifluorescence attachment (Nikon, Melville, N.Y.).
To separate cells that were undergoing apoptosis, or resistant to apoptosis upon TNFα treatment, the Annexin V microbeads (Miltenyi Biotec, Inc.) were used according to manufacturer's protocol. Annexin V is a phospholipid-binding protein that recognizes phosphatidylserine on the surface of apoptotic cells. […]

HeLa IG20 cells = test: TRAIL or TNF-α/cycloheximide induced apoptosis in HeLa IG20 cells (caspase activation, TMRE, Hoechst); settings: 5 hours; TRAIL 100 ng/mL, or 10 ng/mL TNF-α and 10 μg/mL cycloheximide
Procedure: FIG. 13: IG20 transfected HeLa cells show increased apoptosis upon TRAIL treatment. HeLa-IG20 and control cells were treated for 5 hours with TRAIL at 100 ng/mL or with 10 ng/mL of TNF-α and 10 μg/mL of Cycloheximide and analyzed for apoptosis. A) Activation of caspases—cells were incubated for 10 minutes with FITC labeled general caspase inhibitor VAD FMK (Val-Ala-Asp-flouromethyl ketone) and analyzed by FACS. Numbers in the histogram indicate percentage of FITC positive cells. B) Mitochondrial Depolarization—Loss of the dye TMRE is indicative of mitochondrial depolarization and the numbers shown in the FACS histograms represent percentage of TMRE negative cells. All the above experiments were done in triplicates and results shown are representative histograms. […] D) Percentage of cells with condensed chromatin was calculated by counting 3 fields containing at least 200 cells each and error bars indicate mean±S.D.
Mitochondrial depolarization and chromatin condensation—2×10^5 HeLa IG20 and Vector control cells were plated into a 12-well culture dish and allowed to grow for 48 hours. […] Cells were assessed for loss of mitochondrial membrane potential by staining with tetramethylrhodamine ethyl ester (100 nm, Molecular Probes, Eugene, Oreg.) for 10 minutes, washed once with ice-cold PBS, collected and subjected to FACS analysis. […]

caspase-3 = test: Caspase-3 activation in HeLa IG20 cells; settings: 5 hours; TRAIL, or TNF-α and cycloheximide
Procedure: FIG. 15: IG20 Cells show increased specific activation of caspases upon TRAIL treatment A) Initiator caspases—Hela IG20 cells and control cells treated with TRAIL for 1H, were stained, with flourochrome-conjugated peptide inhibitors of specific active caspases as indicated, fixed and analyzed by FACS. B) Caspase-8 cleavage—IG20 HeLa cells and control cells were treated with TRAIL for either 1H or 3H, lysed and immunoblotted for the 10 kDa cleaved product of active caspase-8 using the 6B6 monoclonal antibody. […]
Caspase activation—To assess the general activation of caspases, cells were stained with FITC tagged caspase inhibitor Val-Ala-Asp-flouromethyl ketone Promega, Madison, Wis.) for 10 minutes at 37° C., washed and analyzed by FACS for percentage of FITC positive cells. The initiator caspases were analyzed by using carboxyflourescein labeled peptide flouromethlyketone inhibitors (FAM-peptide-FMK) directed against active caspase-8, 9 and 10 (APOLOGIX caspase detection kit, Cell Tech Inc., Minneapolis, Minn.). […] Cells were collected, washed once, resuspended in Perm/wash buffer and analyzed by FACS for PE positive population. […]

PA-1 cells = test: TRAIL-induced apoptosis in PA-1 cells (active caspase 3); settings: TRAIL three hours
Procedure: FIG. 12: Effects of IG20 on PA-1 Cell Phenotypes. (A) Growth Rates. PA-1 and PA-1-IG20 cells were plated as described in Materials and Methods. Cells were then harvested and counted on the indicated days. Data are presented as mean+standard deviation of three plates for each sample. P values were <0.05 for all test groups. (B) TNFα-Induced Apoptosis. Cells were either untreated or treated with TNFα and cyclohexamide (CHX) for three hours, as described in Materials and Methods and then tested for percentages of cells with active caspase 3. (C) TRAIL-Induced Apoptosis. Cells were either untreated or treated with TRAIL for three hours and then tested for percentages of cells with active caspase 3, in the presence or absence of Z-VAD, an inhibitor of caspase activation. (D) Response to […] and TRAIL Treatment. PA-1-IG20 cells exposed to 6 and 12Gy of […] were plated as described in Materials and Methods. Twenty-four hours later, cells were either untreated or treated with TRAIL for 3 hours. All cells were then harvested and tested for levels of active caspase 3. (E) TNFα- and TRAIL-Induced NFκB Activation. Cells transfected with the NFκB-luciferase reporter were serum-deprived and then subjected to mock, TNFα, TRAIL or zVAD treatments for 5 hours. Cells were then lysed and tested for levels of luciferase activity. […]

[1] = tested on: HeLa IG20 and control cells; test: Inhibition of TRAIL induced apoptosis by caspase inhibitors and DN-FADD (active caspase-3); settings: control and HeLa IG20 cells transfected with inhibitor; TRAIL 100 ng/mL 5 hours
Procedure: FIG. 16. IG 20 enhanced apoptosis can be inhibited by caspase inhibitors and DN FADD HeLaIG20 and control cells (1×10^5 per well in a 6 well plate) were co-transfected with GFP-F vector along with either Crm A, p35 or DN-FADD in the ratio of 1:10. Twenty-four hours post transfection, TRAIL was added at a concentration of 100 ng/mL for 5 hours and both treated and untreated cells were stained with PE-conjugated anti-caspase3 antibodies and subjected to FACS analyses. The data were obtained from only GFP positive cells and represent 2 independent experiments carried out in duplicate.
Transfection with dominant negative FADD, CrmA and p35 constructs—Control vector and IG20 stably transfected HeLa cells were plated at 5×10^5 overnight and the dominant negative FADD, Crm A and p35 constructs were co-transfected (2 μg each) with farnesylated EGFP at a ratio of 1:5. Equal numbers of wells were co-transfected with an appropriate control vector along with EGFP-F at the same ratio. The transfected cells were left untreated or treated with the TRAIL, or with TNF-α and cycloheximide, for 5 hours and cells were collected and stained for active caspase-3 (anti caspase-3 antibody) and subjected to FACS analysis to detect active caspase-3 staining in GFP-positive cells.

## TNFα
HeLa cells; Annexin V-negative HeLa cells after TNFα and CHX
  Apoptosis (cells with depolarized mitochondria): 8%
HeLa cells; Annexin V-positive HeLa cells after TNFα and CHX
  Apoptosis (cells with depolarized mitochondria): 93%
HeLa cells; unseparated control HeLa cells
  Apoptosis (cells with depolarized mitochondria): 35%
HeLa IG20 cells
  Increase in cells undergoing apoptosis, HeLa IG20 versus control cells: two-fold increase
caspase-3
  Relative increase in caspase-3 activation, HeLa IG20 relative to control cells: less than two fold increase

B1: TRAIL: recombinant human TRAIL, TNF Related Apoptosis Inducing Ligand, purchased from Peprotech (protein, UniProt P50591 1-281, looked up)
Tumor necrosis factor ligand …: MAMMEVQGGPSLGQTCVLIVIFTVLLQSLCVAVTYVYFTNELKQMQDKYSKSGIACFLKEDDSYWDPNDEESMNSPCWQVKWQLRQLVRKMILRTSEETISTVQEKQQNISPLVRERGPQRVAAHITGTRGRSNTLSSPNSKNEKALGRKINSWESSRSGHSFLSNLHLRNGELVIHEKGFYYIYSQTYFRFQEEIKENTKNDKQMVQYIYKYTSYPDPILLMKSARNSCWSKDAEYGLYSIYQGGIFELKENDRIFVSVTNEHLIDMDHEASFFGAFLVG
PA-1 cells; PA-1-IG20 cells
  TRAIL-induced apoptosis: highly susceptible to TRAIL-induced apoptosis
PA-1 cells; PA-1 cells
  TRAIL-induced apoptosis: almost completely resistant
HeLa IG20 cells
  Increase in cells undergoing apoptosis, HeLa IG20 versus control cells: 3-3.5 fold
caspase-3
  Relative increase in caspase-3 activation, HeLa IG20 relative to control cells: five fold increase

B2: p35: baculovirus derived general caspase inhibitor (protein, UniProt P08160 1-299, looked up)
Early 35 kDa protein: MCVIFPVEIDVSQTIIRDCQVDKQTRELVYINKIMNTQLTKPVLMMFNISGPIRSVTRKNNNLRDRIKSKVDEQFDQLERDYSDQMDGFHDSIKYFKDEHYSVSCQNGSVLKSKFAKILKSHDYTDKKSIEAYEKYCLPKLVDERNDYYVAVCVLKPGFENGSNQVLSFEYNPIGNKVIVPFAHEINDTGLYEYDVVAYVDSVQFDGEQFEEFVQSLILPSSFKNSEKVLYYNEASKNKSMIYKALEFTTESSWGKSEKYNWKIFCNGFIYDKKSKVLYVKLHNVTSALNKNVILNTIK
[1]
  Effect on TRAIL induced apoptosis (active caspase-3): abrogated TRAIL induced apoptosis
